Laboratory results reported in patent US20150197536A1, “COMPOUNDS REDUCING THE PRODUCTION OF SORBITOL IN THE EYE AND METHODS OF USING THE SAME” (THE REGENTS OF THE UNIVERSITY OF COLORADO, a body corporate, priority 2012, published 2015).

How the values were obtained:
AKR1B10 = AKR1B10 (Homo sapiens, UniProt O60218); assay: Aldo keto reductase specificity, AKR1B10; type: biochemical; details: FIG. 3B; result in words
[1] = tested on: lenses of PAR40 transgenic mice that express human AKR1B1; assay: Sorbitol accumulation in lenses of PAR40 transgenic mice cultured ex vivo; type: cell-based; details: PAR40 transgenic mice expressing human AKR1B1; hyperglycemic conditions; lenses excised and cultured ex vivo; FIG. 4B/5B
AKR1A1 = biological target: T1, AKR1A1 (Homo sapiens, UniProt P14550); assay: Aldo keto reductase specificity, AKR1A1; type: biochemical; details: FIG. 3B; result in words
T1 sequence (P14550 1-325): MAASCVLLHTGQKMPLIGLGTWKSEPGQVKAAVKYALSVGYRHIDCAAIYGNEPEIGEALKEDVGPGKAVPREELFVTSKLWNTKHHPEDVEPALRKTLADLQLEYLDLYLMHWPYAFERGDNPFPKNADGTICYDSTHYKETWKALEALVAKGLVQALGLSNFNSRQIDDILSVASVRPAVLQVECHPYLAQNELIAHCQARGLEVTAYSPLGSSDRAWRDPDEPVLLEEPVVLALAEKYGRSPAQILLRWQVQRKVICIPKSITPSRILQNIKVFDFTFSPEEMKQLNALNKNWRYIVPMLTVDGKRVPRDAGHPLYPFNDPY

[2] = tested on: Raw264.7 murine macrophages; assay: Sorbitol accumulation in Raw264.7 murine macrophages; type: cell-based; details: FIG. 4A/5A
diabetic cataracts = details: active ingredient of gooseberry extracts; Puppala et al. 2012; cited from earlier work

AKR1B10, sequence (O60218 whole entry, species assumed): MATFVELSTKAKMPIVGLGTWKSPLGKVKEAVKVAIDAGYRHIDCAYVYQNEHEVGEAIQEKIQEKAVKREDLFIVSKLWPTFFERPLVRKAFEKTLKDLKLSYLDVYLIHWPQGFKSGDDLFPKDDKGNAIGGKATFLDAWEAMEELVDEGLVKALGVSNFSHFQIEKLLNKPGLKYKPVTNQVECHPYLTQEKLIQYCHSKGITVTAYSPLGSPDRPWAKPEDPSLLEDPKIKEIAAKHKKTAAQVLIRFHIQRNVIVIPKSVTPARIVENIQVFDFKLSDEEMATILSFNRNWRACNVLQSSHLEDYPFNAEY

Row | SMILES | specificity for AKR1B1 over AKR1B10 (AKR1B10) | sorbitol accumulation [1] | specificity for AKR1B1 over AKR1A1 (AKR1A1) | sorbitol accumulation [2] | efficacy in slowing the progression of diabetic cataracts (diabetic cataracts)
1 | O=C(N[C@@H]1O[C@H](CO)[C@@H](O)[C@H](O)[C@H]1O)c1cc(O)c(O)c(O)c1 [BGA, 1-deoxy-1-(3,4,5-trihydroxybenzamido)-β-D-glucopyranose] | displays specificity for AKR1B1 over other aldo keto reductase enzymes | blocks sorbitol accumulation | displays specificity for AKR1B1 over other aldo keto reductase enzymes | blocks sorbitol accumulation | –
2 | O=C(O[C@@H]1O[C@H](CO)[C@@H](O)[C@H](O)[C@H]1O)c1cc(O)c(O)c(O)c1 [BGG, 1-O-(3,4,5-trihydroxybenzoyl)-β-D-glucopyranose] | – | – | – | – | efficacy in slowing the progression of diabetic cataracts
